From PubChem BioAssay (NCI) come the findings set out here.

Where “and” joins values, the source holds several entries; their conditions need not be identical. Equal entries are not always repeated.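 Protocol summary: plate cells (96-well), add compound at 5 concentrations, incubate 48 h, interpolate endpoints linearly. Abbreviation: GI50, concentration required for 50% inhibition of growth. TGI is the concentration that stops growth completely.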 Where only a bound is given, the exact number is not on record here.

Among the test systems are HL-60(TB) leukemia; UACC-257 melanoma; HCC-2998 colon; OVCAR-3 ovarian; TK-10 renal; MDA-MB-231 breast; NCI-H226 lung; OVCAR-8 ovarian; U251 CNS; SR leukemia.
Holding throughout (assay): NCI tumour cell line growth inhibition, 48 h

Consider `Cc1ccc(Nc2[nH]c(C(=O)c3ccc(Cl)cc3)c(N)c2C(=S)Nc2ccccc2)nc1`, for which the GI50 is 63.3 µM with HL-60(TB) leukemia; 33.3 µM with UACC-257 melanoma; 15.9 µM in the assay with HCC-2998 colon; 29.4 µM with OVCAR-3 ovarian; 28.1 µM in the assay on TK-10 renal; 21.4 µM in the assay with MDA-MB-231 breast. Also, the GI50 was 26 µM in the assay on NCI-H226 lung, 22 µM in the assay with OVCAR-8 ovarian and 26.8 µM in the assay with U251 CNS. The TGI was above 100 µM in the assay with HL-60(TB) leukemia; above 100 µM in the assay on UACC-257 melanoma; 33.2 µM in the assay on HCC-2998 colon; 74 µM in the assay on OVCAR-3 ovarian; above 100 µM with TK-10 renal; 64.7 µM in the assay with MDA-MB-231 breast. For the same molecule, the TGI is 91.3 µM with NCI-H226 lung, 97.3 µM in the assay on OVCAR-8 ovarian and above 100 µM in the assay with U251 CNS.

With `Cc1ccc(/C=N/NS(=O)(=O)c2ccccc2)cc1`, the TGI in the assay on HL-60(TB) leukemia, in the assay with UACC-257 melanoma, in the assay with SR leukemia, in the assay with HCC-2998 colon, with OVCAR-3 ovarian and in the assay with TK-10 renal was above 100 µM in each case. The TGI in the assay with NCI-H226 lung, in the assay on OVCAR-8 ovarian and with U251 CNS was above 100 µM each time.

For the molecule `CCOC(=O)/C(=C/c1ccccc1)C(=O)c1ccccc1`, the GI50 in the assay with UACC-257 melanoma was 2.52 µM; in the assay on SR leukemia, 3.43 µM; with HCC-2998 colon, 1.93 µM; in the assay with OVCAR-3 ovarian it was 8.14 µM; in the assay on TK-10 renal, 3.41 µM; in the assay with MDA-MB-231 breast, 3.06 µM. The GI50 in the assay on NCI-H226 lung is 3.48 µM; in the assay on OVCAR-8 ovarian, 2.4 µM; in the assay on U251 CNS, 3.22 µM. Moreover, the TGI turned out to be 10.1 µM in the assay on UACC-257 melanoma; 18 µM in the assay with SR leukemia; 3.69 µM in the assay with HCC-2998 colon; 20.4 µM in the assay with OVCAR-3 ovarian; 11.2 µM in the assay with TK-10 renal; 12 µM in the assay on MDA-MB-231 breast. Further, the figures for the TGI in the assay on NCI-H226 lung, with OVCAR-8 ovarian and with U251 CNS were 18.9 µM, 6.79 µM and 13.6 µM, respectively.

Turning to `CC1(C(=O)NCCN(CCNC(=O)C2(C)CC3(C)CC(C)(C2)C(=O)NC3=O)CCNC(=O)C2(C)CC3(C)CC(C)(C2)C(=O)NC3=O)CC2(C)CC(C)(C1)C(=O)NC2=O` (centres undefined), the TGI in the assay with HL-60(TB) leukemia, with UACC-257 melanoma, in the assay on SR leukemia, in the assay with HCC-2998 colon, in the assay on OVCAR-3 ovarian and in the assay with OVCAR-8 ovarian was above 100 µM throughout. For the same molecule, the TGI in the assay on U251 CNS is above 100 µM.

Take `C[n+]1c2cc(N)ccc2cc2ccc(N)cc21` (tested in a mixture with another compound): the GI50 in the assay with UACC-257 melanoma was 0.337 µM; with SR leukemia it was 0.169 µM; with HCC-2998 colon, 0.221 µM; with OVCAR-3 ovarian, 1.16 µM; in the assay with TK-10 renal it was 1.04 µM; with MDA-MB-231 breast it was 0.618 µM. Also, the GI50 was 0.291 µM with NCI-H226 lung, 0.377 µM in the assay on OVCAR-8 ovarian and 0.448 µM with U251 CNS. In addition, the TGI in the assay on UACC-257 melanoma was 2.04 µM; with SR leukemia, 0.537 µM; in the assay with HCC-2998 colon, 1.44 µM; with OVCAR-3 ovarian, 8.38 µM; in the assay on TK-10 renal, 7.49 µM; in the assay on MDA-MB-231 breast, 2.5 µM. The TGI with NCI-H226 lung was 1.79 µM; in the assay with OVCAR-8 ovarian it was 2.23 µM; in the assay with U251 CNS, 3.65 µM.

As to `COC1=C(C)C(=O)C2=C(C1=O)C(CO)N1C(C#N)C3CC4C(C1C2N1CCOC41)N3C` (centres undefined), the GI50 in the assay with HL-60(TB) leukemia is 0.000183 µM; in the assay with UACC-257 melanoma, 0.00238 µM and 0.0198 µM; in the assay on SR leukemia, 0.00159 µM and 0.00538 µM; in the assay with HCC-2998 colon, 0.00395 µM; in the assay with TK-10 renal, 0.247 µM and 0.0437 µM. Also, the TGI in the assay with OVCAR-3 ovarian was 0.168 µM and 0.0383 µM and < 0.02 µM; with TK-10 renal, 4.05 µM and 15.6 µM; with MDA-MB-231 breast, 1.37 µM; in the assay on OVCAR-8 ovarian, 0.257 µM and 0.404 µM and 0.0957 µM.

Take `NCCn1ccc(NC(c2ccccc2)(c2ccccc2)c2ccccc2)nc1=O`: the TGI with HL-60(TB) leukemia is 38.5 µM; in the assay with UACC-257 melanoma it was 36.2 µM; in the assay with SR leukemia, 46.2 µM; in the assay with HCC-2998 colon, 31.9 µM; with OVCAR-3 ovarian, 52.6 µM; in the assay on TK-10 renal, 85 µM. Also, the TGI was 32.8 µM in the assay on NCI-H226 lung, above 100 µM in the assay with OVCAR-8 ovarian and 39.4 µM in the assay on U251 CNS.

As to `COc1cc[c]([Sb]([Br])([CH]=C(C)C)([CH]=C(C)C)[CH]=C(C)C)cc1`, the GI50 with HL-60(TB) leukemia was 1.73 µM; in the assay with UACC-257 melanoma it was 3.45 µM; in the assay with SR leukemia, 4.28 µM; with HCC-2998 colon, 6.53 µM; with TK-10 renal, 18.8 µM; in the assay with OVCAR-8 ovarian, 8.15 µM. For the same molecule, the GI50 in the assay with U251 CNS is 9.37 µM. Also, the TGI in the assay on HL-60(TB) leukemia was 13.7 µM; with UACC-257 melanoma, above 100 µM; in the assay with SR leukemia, above 100 µM; with HCC-2998 colon it was above 100 µM; with TK-10 renal it was above 100 µM; in the assay with OVCAR-8 ovarian it was above 100 µM. The molecule further registered a TGI with U251 CNS of 72.8 µM.

On to `O=C1NC2(CCCC2)/C(=N\O)C12CCCC2`, for which the TGI in the assay on HL-60(TB) leukemia, in the assay with UACC-257 melanoma, with SR leukemia, in the assay with OVCAR-3 ovarian, in the assay with TK-10 renal and with OVCAR-8 ovarian was above 100 µM in each case. The same molecule displayed a TGI in the assay on U251 CNS above 100 µM.

Consider `CCCCCCCCCCCCOC1C(CNCC2OC3OC(C)(C)OC3C2NC(=O)Nc2ccc(C(F)(F)F)cc2)OC2OC(C)(C)OC21` (centres undefined), for which the GI50 is 0.0134 µM in the assay on HL-60(TB) leukemia; 8.62 µM with UACC-257 melanoma; 3.05 µM in the assay on HCC-2998 colon; 4.59 µM in the assay on OVCAR-3 ovarian; 3.39 µM in the assay with TK-10 renal; 2.94 µM with MDA-MB-231 breast. The GI50 is 7.59 µM with NCI-H226 lung, 6.81 µM in the assay on OVCAR-8 ovarian and 4.63 µM with U251 CNS. Also, the TGI amounted to 0.364 µM in the assay on HL-60(TB) leukemia; 17.9 µM in the assay with UACC-257 melanoma; 5.88 µM with HCC-2998 colon; 13.3 µM in the assay with OVCAR-3 ovarian; 7.86 µM in the assay on TK-10 renal; 7.37 µM in the assay on MDA-MB-231 breast. For the same molecule, the TGI in the assay on NCI-H226 lung was 16.4 µM; in the assay with OVCAR-8 ovarian, 18.1 µM; in the assay with U251 CNS, 12.2 µM.

As to `NC1=NN(c2ccccc2)C(=O)C1/C(=N\NC(=O)c1cc2ccccc2cc1O)C(=O)Nc1nc([N+](=O)[O-])cs1` (centres undefined), the TGI in the assay with HL-60(TB) leukemia is 37.9 µM; in the assay with UACC-257 melanoma, 64.4 µM; with SR leukemia, 58.3 µM; with HCC-2998 colon, above 100 µM; in the assay on OVCAR-3 ovarian, 98.6 µM; with TK-10 renal it was above 100 µM. Besides, the TGI in the assay on NCI-H226 lung was above 100 µM; in the assay on OVCAR-8 ovarian, 62.6 µM; with U251 CNS, above 100 µM.

As to `COc1ccc2nc3ccccc3c(NCCCCCN(CCCl)CCCl)c2c1`, the TGI in the assay on HL-60(TB) leukemia worked out at 0.0881 µM; in the assay on SR leukemia, 0.0101 µM; with HCC-2998 colon, 0.23 µM; with OVCAR-3 ovarian it was 0.963 µM; in the assay with TK-10 renal it was 1.38 µM; in the assay with NCI-H226 lung, 0.801 µM. Moreover, the TGI is 2.2 µM with OVCAR-8 ovarian and 0.5 µM in the assay with U251 CNS.
